We go through 21 molecules from US5438064A, “Derivatives of 4-anilinoquinoline-3-carboxamide as analgesic agents” (American Home Products Corporation, priority 1991, dated 1995).

Counter-ions that a name gives are not always drawn.

One assay relates to bradykinin-induced writhing in mice. The experiment in a line: Bradykinin-induced Writhing in Mice. The assay is classed as in vivo, mice (male CD-1). The settings on record: 30 mg/kg i.p., mice. The method, then: 2. Bradykinin-induced Writhing in Mice
Male CD-1 Charles River mice (14-19g), fasted overnight but having free access to water, in groups of 10 (control and treated) are given an intraperitoneal (j.p.) injection of 1 mg/kg of prostaglandin PGE2 in phosphate buffered saline (10 μl/g) and after 20 minutes each mouse receives an i.p. injection of bradykinin (0.5 mg/kg in saline). The treatment group of mice receive a test compound either orally 1 hour prior to administration of bradykinin or i.p. 2 minutes prior to administration of bradykinin. Test compounds are given in saline if soluble or as a suspension in 0.5% Tween 80. The percent inhibition of writhing obtained is calculated as follows: [formula] where C is the mean number of writhes in the control group and D is the mean number of writhes in the drag group. If 30% inhibition or higher is observed with the screening dose, the test compound is considered active. Several logarithmically spaced doses will be tested and the ED50 determined by regression methods with inverse prediction.
In general terms: An intraperitoneal irritant provokes the stretching counted in writhing tests.
Take `CCCCN1CCC(NC(=O)c2cnc3c(OC)cccc3c2Nc2ccc(C(=O)NC3CCN(Cc4ccccc4)CC3)cc2)CC1` [Ex. 8, N-(1-Butyl-4-piperidinyl)-8-methoxy-4-[[4-[[[1-(phenylmethyl) -4-piperidinyl]amino]carbonyl]phenyl]amino]-3-quinolinecarboxamide]: the “Bradykinin-induced writhing, % inhibition at 30 mg/kg i.p.” value is on record as 32%.

Consider `CCN(CC)C(=O)CCCCCN1CCC(NC(=O)c2cnc3c(OC)cccc3c2Nc2ccc(C(=O)NC3CCN(Cc4ccccc4)CC3)cc2)CC1` [Ex. 9, N-[1-[6-(Diethylamino)-6-oxohexyl]-4-piperidinyl]-8-methoxy-4-[[4-[[[1-(phenylmethyl)-4-piperidinyl]amino]carbonyl]-phenyl]amino]-3-quinolinecarboxamide], for which the “Bradykinin-induced writhing, % inhibition at 30 mg/kg i.p.” value was 46%.

In the case of `COc1cccc2c(Nc3ccc(C(=O)NC4CCN(Cc5ccccc5)CC4)cc3)c(C(=O)NC3CCN(Cc4ccccc4)CC3)cnc12` [Ex. 3], the “Bradykinin-induced writhing, % inhibition at 30 mg/kg i.p.” value came to 20%.

Staying with this assay, now noted: 100 mg/kg p.o., mice.
For the molecule `CC(C(=O)O)c1cccc(C(=O)c2ccccc2)c1` (stereo not drawn) [Ketoprofen], the “Bradykinin-induced writhing, % inhibition” value is listed as 52%.

Staying with this assay, now noted: 200 mg/kg p.o., mice.
`CC(C)Cc1ccc(C(C)C(=O)O)cc1` (stereo not drawn) [Ibuprofen]: the “Bradykinin-induced writhing, % inhibition” value is listed as 43%.

Still in this assay, the particulars now being: 300 mg/kg p.o., mice.
With `CC(=O)Nc1ccc(O)cc1` [Acetaminophen], the “Bradykinin-induced writhing, % inhibition” value came to 20%.

Staying with this assay, now noted: Mus musculus, po, read-out: Bradykinin-induced writhing, ED50.
Take `CN1CC[C@]23c4c5ccc(O)c4O[C@H]2[C@@H](O)C=C[C@H]3[C@H]1C5` [Morphine]: the ED50 (in general, the midpoint of the dose-response relation) came out at 4.5 mg/kg.

Another assay has as its target T1, BK2 receptor sites in guinea pig ileum (Cavia porcellus, UniProt O70526).
T1 construct: The tissue is cut into small pieces and homogenized in 20 volumes of homogenization buffer; from tissue; host or cells: guinea pig distal ileum, membrane homogenate (Hartley strain, male, adult; animals from Charles River)
T1 sequence (O70526 1-372): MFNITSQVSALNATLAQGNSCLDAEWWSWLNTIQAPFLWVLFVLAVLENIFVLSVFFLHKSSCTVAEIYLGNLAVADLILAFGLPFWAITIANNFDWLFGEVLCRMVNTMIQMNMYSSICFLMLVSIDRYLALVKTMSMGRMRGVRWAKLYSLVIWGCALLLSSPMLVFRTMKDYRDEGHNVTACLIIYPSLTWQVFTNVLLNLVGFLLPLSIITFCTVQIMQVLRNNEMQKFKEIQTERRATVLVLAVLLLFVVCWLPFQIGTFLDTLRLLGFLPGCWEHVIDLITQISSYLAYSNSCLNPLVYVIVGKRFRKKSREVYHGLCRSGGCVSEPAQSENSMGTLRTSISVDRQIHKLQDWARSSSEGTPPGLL
The assay can be described thus: Bradykinin Receptor Binding Assay (competition with 3H-bradykinin for BK2 receptor sites in guinea pig ileum). As to conditions: 80 pM 3H-BK, guinea pig ileum homogenate, 90 min, 25° C., pH 6.8; read-out: Bradykinin Binding in G.P. ileum, IC50. The procedure:
1. Bradykinin Receptor Binding Assay
The following procedure is used to identify compounds which compete specifically with triturated bradykinin (^3 H-BK) for BK2 receptor sites in guinea pig ileum.
The distal portion of adult, male guinea pig (Hartley strain, 350-500 g, Charles River) ileum is removed and placed in ice cold homogenization buffer [[…] N-tris (hydroxymethyl)methyl-2-aminoethane sulfonic acid (TES), 1 mM 1, 10-phenanthroline, adjusted to pH 6.8 with ammonium hydroxide].
The contents of the ileal lumen are rinsed out with cold homogenization buffer. The tissue is cut into small pieces and homogenized in 20 volumes of homogenization buffer 3 times of 10 seconds duration using a Brinkman Polytron homogenizer equipped with a PTA 10 TS generator at setting 5.
The homogenate is fillered through a surgical gauze sponge and centrifuged at 50,000 × g for 20 minutes at 4° C. The supernatant fluid is discarded and the homogenization and centrifugation procedures are repeated. After discarding the supernatant fluid, the final pellet is resuspended in 40 volumes of assay buffer (25 mM TES, pH 6.8, 1 mM 1,10-phenanthroline, 1 mM dithiothreitol, 2 μM captopril, 140 μg/ml bacitracin and 0.1% bovine serum albumin (BSA)). The homogenate is filtered once more through a surgical gauze sponge and kept on ice until used. The assay is performed using only polypropylene pipet tips and polypropylene test tubes. Each tube receives 100 μl of 800 pM ^3 H-BK, 100 μl of the test compound solution […] or vehicle (assay buffer), and 100 μl of 25 mg/ml tissue homogenate in a total volume of 1 ml. The final concentration of 3H-BK is 80 pM. The final tissue concentration is 2.5 mg/ml. Compounds are screened at 100 μM. Compounds which are not soluble in water are first solubilized in DMSO and then diluted 1:100 in the assay buffer. Addition of 100 μl of this sample to the assay will yield a final DMSO concentration of 0.1% which has been shown not to affect the binding assay. Nonspecific binding is determined in the presence of 1 μM unlabeled bradykinin. All determinmions are made in triplicate. Three 100 μl aliquots of the 800 pM 3H-BK working solution are added directly to scintillation vials to determine the total added radioactivity.
The tubes are incubated for 90 minutes at 25° C. while being gently agitated on an orbital shaker. Bound ligand is separated from free ligand, using Whatman GF/B glass fiber filters (pretreated with 0.1% aqueous polyethyleneimine made neutral with HCl). A Brandel receptor binding harvester is used. Assay tubes and glass fiber filters are rinsed three times with 3 ml of cold physiological saline.
The filter discs are transferred to 20 ml scintillation vials. Ten ml of aqueous sample LSC cocktail (Aquassure, New England Nuclear) is added to each vial. After capping, the vials are agitated for 5 minutes on an orbital shaker. The samples are counted for ten minutes in a refrigerated liquid scintillation counter to obtain the following values: Bt (total binding), Bns (non-specific binding) and Bx (total binding in the presence of the test compound). From these values, control specific binding (C=Bt -Bns), specific binding in the presence of the test compound (D=Bx -Bns), percent of control (D/C ×100) and percent inhibition (1-D/C)×100 are calculated.
If 50% inhibition is obtained at the screening concentration, the compound is considered active and a dilution series (typically 1:3 serial dilutions of the test compound) is tested in the binding assay. After calculation of the percent of control of each dilution, the values are analyzed and the IC50 with its 95% confidence limits is determined.
With `O=C(NC1CCN(Cc2ccccc2)CC1)c1ccc(Nc2c(C(=O)NC3CCN(Cc4ccccc4)CC3)cnc3cc(Cl)ccc23)cc1` [Ex. 17, 7-Chloro-N-[1-(phenylmethyl)-4-piperidinyl]-4-[[4-[[[1-(phenylmethyl)-4-piperidinyl]amino]carbonyl]phenyl]amino]-3-quinolinecarboxamide], the IC50 – broadly, the concentration needed to halve the response being measured – amounted to 0.43 µM.

`CCN(CC)C(=O)CCCCCN1CCC(N(Cc2ccc(Nc3c(C(=O)NC4CCN(Cc5ccccc5)CC4)cnc4c(OC)cccc34)cc2)C(=O)CCC2CCCC2)CC1` [Ex. 6]: the IC50 was determined as 1.44 µM.

For `CCCCN1CCC(NC(=O)c2cnc3c(OC)cccc3c2Nc2ccc(C(=O)NC3CCN(Cc4ccccc4)CC3)cc2)CC1` [Ex. 8, N-(1-Butyl-4-piperidinyl)-8-methoxy-4-[[4-[[[1-(phenylmethyl) -4-piperidinyl]amino]carbonyl]phenyl]amino]-3-quinolinecarboxamide], the IC50 amounted to 1.2 µM.

Take `COc1cccc2c(Nc3ccc(C(=O)NC4CCN(Cc5ccccc5)CC4)cc3)c(C(=O)NC3CCN(CCc4ccccc4)CC3)cnc12` [Ex. 12, N-[1-(2-Phenylethyl)-4-piperidinyl]-8-methoxy-4-[[4-[[[1-(phenylmethyl)-4piperidinyl]amino]carbonyl]phenyl]amino]-3-quinolinecarboxamide]: the IC50 is 0.67 µM.

Consider `CCN(CC)C(=O)c1cccc(CN2CCC(NC(=O)c3cnc4c(OC)cccc4c3Nc3ccc(C(=O)NC4CCN(Cc5ccccc5)CC4)cc3)CC2)c1` [Ex. 11], for which the IC50 worked out at 1.6 µM.

With `COc1cccc2c(Nc3ccc(C(=O)NC4CCN(Cc5ccccc5)CC4)cc3)c(C(=O)NCCN(C)C)cnc12` [Ex. 4, N-[2-(Dimethylamino)ethyl]-8-methoxy-4-[[4-[[[1-(phenylmethyl) -4-piperidinyl]amino]carbonyl]phenyl]amino]-3-quinolinecarboxamide trifluoroacetate (1:4)], the IC50 worked out at 2.7 µM.

With `COc1cccc2c(Nc3ccc(C(=O)NC4CCN(Cc5ccccc5)CC4)cc3)c(C(=O)NC3CCN(Cc4cccc(Cl)c4)CC3)cnc12` [Ex. 2], the IC50 turned out to be 0.079 µM.

Consider `COc1cccc2c(Nc3ccc(C(=O)NC4CCN(Cc5ccccc5)CC4)cc3)c(C(=O)NC3CCN(Cc4cccc(C(F)(F)F)c4)CC3)cnc12` [Ex. 16], for which the IC50 stood at 0.25 µM.

For the molecule `COc1cccc(CN2CCC(NC(=O)c3cnc4c(OC)cccc4c3Nc3ccc(C(=O)NC4CCN(Cc5ccccc5)CC4)cc3)CC2)c1` [Ex. 15, N-[1-[(3-Methoxyphenyl)methyl]-4-piperidinyl]-8-methoxy-4-[[4-[[[1-(phenylmethyl)-4-piperidinyl]amino]carbonyl]phenyl]amino]-3-quinoline-carboxamide], the IC50 came out at 0.22 µM.

On to `COc1cccc2c(Nc3ccc(C(=O)NC4CCN(Cc5ccccc5)CC4)cc3)c(C(=O)N(C)C3CCN(C)CC3)cnc12` [Ex. 14], for which the half-maximal inhibitory concentration (IC50) was 1.4 µM.

For `CCN(CC)C(=O)CCCCCN1CCC(NC(=O)c2cnc3c(OC)cccc3c2Nc2ccc(C(=O)NC3CCN(Cc4ccccc4)CC3)cc2)CC1` [Ex. 9, N-[1-[6-(Diethylamino)-6-oxohexyl]-4-piperidinyl]-8-methoxy-4-[[4-[[[1-(phenylmethyl)-4-piperidinyl]amino]carbonyl]-phenyl]amino]-3-quinolinecarboxamide], the half-maximal inhibitory concentration (IC50) is 2.6 µM.

For the molecule `CCN(CCN(C)C)C(=O)c1cnc2c(OC)cccc2c1Nc1ccc(C(=O)NC2CCN(Cc3ccccc3)CC2)cc1` [Ex. 5, N-[2-(Dimethylamino)ethyl]-N-ethyl-8-methoxy-4-[[4-[[[1-(phenylmethyl)-4-piperidinyl]amino]carbonyl]phenyl]amino]-3-quinolinecarboxamide], the IC50 stood at 2.9 µM.

As for `COc1cccc2c(Nc3ccc(C(=O)NC4CCN(Cc5ccccc5)CC4)cc3)c(C(=O)NC3CCN(Cc4ccc(C(C)(C)C)cc4)CC3)cnc12` [Ex. 1, N-[1-[4-(1,1-Dimethylethyl)phenyl]methyl-4-piperidinyl]-8-methoxy-4-[[4-[[[1-(phenylmethyl) -4-piperidinyl]amino]carbonyl]phenyl]amino]-3-quinolinecarboxamide], the IC50 was 0.43 µM.

For the molecule `COc1cccc2c(Nc3ccc(C(=O)NC4CCN(Cc5ccccc5)CC4)cc3)c(C(=O)NC3CCN(Cc4ccccc4)CC3)cnc12` [Ex. 3], the IC50 came out at 0.093 µM.

With `CCCCN1CCC(NC(=O)c2ccc(Nc3c(C(=O)NC4CCN(Cc5ccccc5)CC4)cnc4c(OC)cccc34)cc2)CC1` [Ex. 13, 4-[[4-[[(1-Butyl-4-piperidinyl)amino]carbonyl]phenyl]amino]-8-methoxy-N-[1-(phenylmethyl)-4-piperidinyl]-3-quinoinecarboxamide], the IC50 is 2.9 µM.

Still in this assay, the particulars now being: at 10 μM; 80 pM 3H-BK, guinea pig ileum homogenate; read-out: Bradykinin Binding in G.P. ileum, % inhibition at 10 μM.
On to `CCCCN1CCC(NCc2ccc(Nc3c(C(=O)NC4CCN(Cc5ccccc5)CC4)cnc4c(OC)cccc34)cc2)CC1` [Ex. 7, 4-[[4-[[(1-Butyl-4-piperidinyl)amino]methyl]phenyl]amino]-8-methoxy-N-[1-(phenyimethyl)-4-piperidinyl]-3-qinolinecarboxamide], for which the inhibition (usually the percentage by which the read-out fell short of the control) at 10 µM was determined as 50.5%.

Turning to `CCCCN1CCC(N(Cc2ccc(Nc3c(C(=O)NC4CCN(Cc5ccccc5)CC4)cnc4c(OC)cccc34)cc2)C(=O)CCC)CC1` [Ex. 10], the inhibition at 10 µM stood at 42.8%.
